# Patent EP0497399A1, “Process for evaluating skin irritancy” (THE PROCTER & GAMBLE COMPANY, priority 1991, dated 1992)
# Read-outs that look alike come from different tables or passages of the source. Marks after values point to notes of the source that are not given here.
# Legend:
# [1] = MTT assay of cell viability in human skin cell co-cultures on nylon mesh; format: cell-based; settings: human, huk/f skin cell co-culture
# Protocol: (§4) The MTT assay measures the reduction of a tetrazolium dye by electron transport in mitochondria of viable cells, and subsequent intracellular trapping of the formazan product. • 1. […] It is a measure of cell viability, and is performed on all treatment meshes immediately following medium collection. The MTT assay quantitates the reduction and subsequent trapping of a yellow tetrazolium dye which is reduced by the electron transport chain of functional mitochondria to a purple formazan dye. Briefly, MTT (3-[4,5-Dimethylthiazol-2yl]-2,5-diphenyltetrazolium bromide; Sigma Catalog #M-2128) powder is diluted in cell culture medium (0.5 mg./ml.) and pre-warmed to 37 °C before use. One ml of this dye solution is aliquoted onto each mesh, and the meshes are then incubated 3 hours at 37 °C and 5% CO₂. After incubation, the MTT is aspirated, and 2 ml. of pure isopropanol is used to extract the reduced dye for two hours at room temperature. The meshes are removed from the culture well and extraction solvent mixed by stirring before aliquoting for absorbance readings. The absorbance of each extract is read at 540 nm on a Biotek EL-312 (96 well) spectrophotometer. • 2.
# HuK/F cultures [2] = experiment: as above; format: cell-based
# Protocol: as §4
# HuK/F cultures [3] = experiment: Lactate dehydrogenase release into culture medium (cytotoxicity); format: cell-based, human; settings: 48 hours
# Protocol: (§1) For each HuK/F experiment, on a 24 well plate, 1 test material is evaluated at 4 concentrations (in quadruplicate wells per each concentration). In addition, 4 wells serve as medium control, and 4 wells as sodium dodecyl sulfate positive control. For each material evaluated, a dose-range finding study is performed at 0.001, 0.01, 0.1 and 1.0% (w/v) concentrations to determine the concentration eliciting minimum and maximum cytotoxicity in the MTT assay of cell viability. Based on the dose-range finding study, a range of test material concentrations is selected to determine the concentration eliciting minimum and maximum cytotoxicity in the MTT assay of cell viability. Based on the dose-range finding study, concentrations are selected at the maximal cytoxicity level and minimum level and at two 1/3 log intervals between these concentrations (e.g., if the maximum cytoxicity was at 1% with no cytotoxicity or cell death at 0.1% the concentrations evaluated subsequently would be 0.1, 0.3, 0.6 and 1%).
# (§2) On treatment day, growth medium is aseptically aspirated, and the cell meshes are treated with two ml of test medium per well. Medium alone served as a no treatment control with 0.01% sodium dodecyl sulfate acting as a positive control (n=4 wells/group). All test plates are incubated at 37 °C and 5% carbon dioxide for 4 to 72 hours. Observations are made (e.g. changes in medium color) during the treatment period.
# (§3) • 1. Place one untreated, precut mesh (no cells) into one or more wells to determine the background non-specific binding (NSB) of MTT to mesh and to act as absolute blank. In remaining wells place 1 mesh per well of the fibroblast/keratinocyte co-cultures. Add 2 ml of the assay medium which is supplied with the test kit. (Marrow-Tech supplies a medium). • 2. Remove medium from each well and add 2 ml/well of test agent diluted in assay medium. Refeed untreated control mesh and mesh without cells with assay medium. • 3. Incubate 48 hours at 37 °C in 5%. carbon dioxide atmosphere. • 4. Prepare a solution of 0.5 mg/ml MTT (Sigma Chemical Co. Catalog #M-2128) in assay medium. Centrifuge MTT/medium for 5 minutes at 3000 RPM to pellet undissolved crystals, then prewarm MTT in a 37 °C waterbath. • 5. Remove spent medium. Use 1 ml aliquot to analyze for lactate dehydrogenase and N-acetylglucosaminidase release and glucose; 1 ml can be saved under nitrogen at -70 °C for PGE2 analysis at a later time. • 6. Add 1 ml/well MTT/medium solution. Add medium without MTT to absolute blank well. Incubate cultures at 37 °C, 5% carbon dioxide for 3 hours. • 7. Remove MTT/medium and wash each mesh 2 times with 1 ml Dulbecco's phosphate buffered saline with calcium and magnesium (PBS). About 2-5 minutes each wash. • 8. Remove second PBS wash and add 2 ml isopropanol/well at room temperature 2 hours. This will extract the formazan from mitochondria of cells into the supernatant. (Note: the amount of MTT taken up by a cell culture and subsequently released by solvent extraction is proportional to the number of viable cells within the culture). Remove meshes from test well and stir on shaking vortex mixer. • 9. Transfer 200 microliter aliquots of the blue spent solvent from each well to a 96 well microtiter plate and read absorbance at 540 nm blanking to absolute blank (well not exposed to the MTT). The wells containing the NSB meshes should be subtracted from the test well absorbances before performing calculations below.
# HuK/F cultures [4] = experiment: N-acetylglucosaminidase release into culture medium (cytotoxicity); format: cell-based, human; settings: 48 hours
# Protocol: as §1, §2, §3
# HuK cells = format: cell-based, human
# Protocol: Human neonatal foreskin keratinocytes are grown in keratinocyte growth medium-KGM complete with epidermal growth factor, insulin, hydrocortisone, anti-microbial agents and supplemented with bovine pituitary extract. (This medium is available from Clonetics). Cultures are maintained in a humidified atmosphere at 37 °C and 5% carbon dioxide throughout the experiment. Four days prior to treatments keratinocytes are trypsinized and subcultured. KGM medium is used and Clonetics reagents and methods used as per their standard protocol. Cells are plated at a density of about 33,000/ well in a 24 well Corning culture plate.
# In preliminary experiments with HuK/F co-cultures, two vital dye assays measuring cell viability can be used. […] The MTT assay quantitates the reduction and subsequent trapping of a yellow tetrazolium dye which is reduced by the electron transport chain of functional mitochondria to a purple formazan dye. […] The meshes are removed from the culture well and extraction solvent mixed by stirring before aliquoting for absorbance readings. The absorbance of each extract is read at 540 nm on a Biotek EL-312 (96 well) spectrophotometer. • 2. The Neutral Red Bioassay is described in Borenfreund, E., and Puerner, J., A Simple Quantitative Procedure Using Monolayer Cultures for Cytotoxicity Assays (HTD/NR-90), J. Tissue Cult. […]
# HuF cells = format: cell-based, human
# Protocol: Human neonatal fibroblasts are grown in Dulbecco's Modified Eagles Medium (DMEM) supplemented with 10% Fetal Bovine Serum (FBS) (provided by Marrow-Tech). This maintenance medium is the same formulation as described for the above co-cultures with the substitution of 10% FBS for the 2% Ultroser-G medium. Twenty-four hours prior to treatment fibroblasts are trypsinized (Gibco, Trypsin EDTA, Catalog #610-5200AG) by placing 2 ml of 0.25% trypsin over PBS washed cells. After about 1 minute the trypsin is aspirated and cells observed microscopically for rounding up and release from the culture dish. […]
# In preliminary experiments with HuK/F co-cultures, two vital dye assays measuring cell viability can be used. […] The MTT assay quantitates the reduction and subsequent trapping of a yellow tetrazolium dye which is reduced by the electron transport chain of functional mitochondria to a purple formazan dye. […] The meshes are removed from the culture well and extraction solvent mixed by stirring before aliquoting for absorbance readings. The absorbance of each extract is read at 540 nm on a Biotek EL-312 (96 well) spectrophotometer. • 2. The Neutral Red Bioassay is described in Borenfreund, E., and Puerner, J., A Simple Quantitative Procedure Using Monolayer Cultures for Cytotoxicity Assays (HTD/NR-90), J. Tissue Cult. […] The cells are evaluated using the standard neutral red assay methodology. […]
# in vitro = settings: human, keratinocyte monolayer
# From the text: The human keratinocyte monolayer cultures (available from Clonetics) were characterized using a fluorescein-labeled anti-cytokeratin antibody that stained the cytoskeleton of keratinocytes preferentially. This stain confirms that the cells are epithelial in nature.
# [5] = human, huk/f skin cell co-culture, 48 h
compound,measurement,setting,value
"CCCCCCCC/C=C\CCCCCCCC(=O)OCCOCC(OCCO)C1OCC(OCCO)C1OCCO (stereo not drawn) [Tween 80, Polyoxyethylenesorbitan Monooleate]",CC50 at 48 h,[1],4300 µg/mL
Ammonium Coconut Alkyl Ethoxylate 6.5 Sulfate [NH4CNAE6.5S],MTT-50 Endpoint (Concentration w/v),HuK/F cultures [2]; [5],0.019%
Benzalkonium Chloride,MTT-50 Endpoint (Concentration w/v),"HuK/F cultures [2]; concentration w/v giving 50% decrease in MTT dye uptake vs untreated control, HuK/F, 48 hours",0.0007%
same,Lactate Dehydrogenase Release,HuK/F cultures [3]; 0.0005 % w/v,138.5+ U/L
same,Lactate Dehydrogenase Release,HuK/F cultures [3]; 0.001 % w/v,1032.0+* U/L
same,Lactate Dehydrogenase Release,HuK/F cultures [3]; 0.005 % w/v,1334.5+* U/L
same,Lactate Dehydrogenase Release,HuK/F cultures [3]; 0.01 % w/v,1236.5+* U/L
same,N-Acetylglucosaminidase Release,HuK/F cultures [4]; 0.0005 % w/v,14.95+ U/L
same,N-Acetylglucosaminidase Release,HuK/F cultures [4]; 0.001 % w/v,18.08+* U/L
same,N-Acetylglucosaminidase Release,HuK/F cultures [4]; 0.005 % w/v,19.93+* U/L
same,N-Acetylglucosaminidase Release,HuK/F cultures [4]; 0.01 % w/v,11.98+* U/L
CCCCCCCCCCCCOS(=O)(=O)[O-].[Na+] [Sodium Dodecyl Sulfate],CC50 at 48 h,"[1]; concentration w/v giving 50% decrease in MTT dye uptake vs untreated control, HuK/F, 48 hours, read-out: MTT-50 Endpoint (Concentration w/v)",57 µg/mL
same,"more sensitive than HuK/F cultures (decrease in cell viability, NR assay)",HuK cells,about 10 fold
same,"more sensitive than HuK/F cultures (decrease in cell viability, NR assay)",HuF cells,about 10 fold
same,fold induction at 48 h,in vitro,~2.5
CC(C)(C)CC(C)(C)c1ccc(OCCOCC[N+](C)(C)Cc2ccccc2)cc1 [Benzethonium Chloride],Lactate Dehydrogenase Release,HuK/F cultures [3]; 0.001 % w/v,433.5+ U/L
same,Lactate Dehydrogenase Release,HuK/F cultures [3]; 0.003 % w/v,1408.0+* U/L
same,Lactate Dehydrogenase Release,HuK/F cultures [3]; 0.006 % w/v,1344.0+* U/L
same,Lactate Dehydrogenase Release,HuK/F cultures [3]; 0.01 % w/v,1471.5+ U/L
same,N-Acetylglucosaminidase Release,HuK/F cultures [4]; 0.001 % w/v,21.20+ U/L
same,N-Acetylglucosaminidase Release,HuK/F cultures [4]; 0.003 % w/v,37.63+* U/L
same,N-Acetylglucosaminidase Release,HuK/F cultures [4]; 0.006 % w/v,37.10+* U/L
same,N-Acetylglucosaminidase Release,HuK/F cultures [4]; 0.01 % w/v,21.73+* U/L
Ammonium Coconut Alkyl Ethoxylate 12 Sulfate [NH4CNAE12S],MTT-50 Endpoint (Concentration w/v),HuK/F cultures [2]; [5],0.025%
"CCCCCCCCCCCC[N+](C)(C)[O-] [C12 DDAO, Dodecyl Dimethyl Amine Oxide]",CC50 at 48 h,[1],180 µg/mL
same,Lactate Dehydrogenase Release,HuK/F cultures [3]; 0.01 % w/v,116.0+ U/L
same,Lactate Dehydrogenase Release,HuK/F cultures [3]; 0.03 % w/v,1270.0+ U/L
same,Lactate Dehydrogenase Release,HuK/F cultures [3]; 0.06 % w/v,1261.5+ U/L
same,Lactate Dehydrogenase Release,HuK/F cultures [3]; 0.1 % w/v,1196.0+ U/L
same,N-Acetylglucosaminidase Release,HuK/F cultures [4]; 0.01 % w/v,21.15 U/L
same,N-Acetylglucosaminidase Release,HuK/F cultures [4]; 0.03 % w/v,23.53+ U/L
same,N-Acetylglucosaminidase Release,HuK/F cultures [4]; 0.06 % w/v,23.33+ U/L
same,N-Acetylglucosaminidase Release,HuK/F cultures [4]; 0.1 % w/v,26.90+ U/L
